The values that follow come from publication PMC3193285 (ACS Medicinal Chemistry Letters, 2011).

The test system of one series is TNF-α. Kind of series: TNF-α-induced NF-κB activation luciferase reporter counterscreen. The format is cell-based. The conditions noted are these: Homo sapiens. On the technique in general: Reporter assays use an easily measured gene product as a stand-in for the process of interest.
The subject of another series is 443 kinases. Kind of series: Ambit KinomeScreen panel. The conditions noted are these: 10 μM.
The target in series [1] is RIOK2 (right open reading frame) (Homo sapiens, UniProt Q9BVS4). As to the kind of experiment: Ambit KinomeScreen, RIOK2. The conditions noted are these: 10 μM.
Chain of RIOK2 (right open reading frame) (Q9BVS4 whole entry, species assumed): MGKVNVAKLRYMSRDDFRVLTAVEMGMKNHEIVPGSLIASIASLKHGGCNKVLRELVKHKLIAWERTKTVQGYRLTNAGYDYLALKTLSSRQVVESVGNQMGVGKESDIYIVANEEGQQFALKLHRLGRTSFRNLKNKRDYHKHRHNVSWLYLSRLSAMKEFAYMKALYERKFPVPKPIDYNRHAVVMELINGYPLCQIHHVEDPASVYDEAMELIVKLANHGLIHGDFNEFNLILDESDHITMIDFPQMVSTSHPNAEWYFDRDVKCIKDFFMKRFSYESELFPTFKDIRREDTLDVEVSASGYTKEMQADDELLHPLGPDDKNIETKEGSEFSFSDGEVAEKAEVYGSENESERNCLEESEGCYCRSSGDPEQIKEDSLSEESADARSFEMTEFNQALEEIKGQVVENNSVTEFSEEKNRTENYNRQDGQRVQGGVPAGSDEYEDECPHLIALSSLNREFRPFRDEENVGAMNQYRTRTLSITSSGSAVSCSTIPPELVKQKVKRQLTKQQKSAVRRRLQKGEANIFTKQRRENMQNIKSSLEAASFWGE
The nature of series [2]: Metabolic stability in mouse hepatic microsomes. The format is in vitro ADME. The conditions noted are these: percent remaining at 1 h.
The nature of series [3]: Plasma stability, mouse plasma. The format is in vitro ADME. The following applies: Plasma/PBS, compound at 1 μM, 3 h.
Series [4] concerns NCI 60 human tumor cell line.
The nature of series [5]: Plasma protein binding, mouse plasma. It is filed as in vitro ADME.
Series [6] can be described thus: Aqueous kinetic solubility. The format is physicochemical. The following applies: aqueous solution, pH 6.2.
Series [7] can be described thus: Metabolic stability in human hepatic microsomes. The following applies: percent remaining at 1 h. The format is in vitro ADME.
The subject of series [8] is NF-κB activation via doxorubicin-induced pathway. As to the kind of experiment: NF-κB selectivity assay, HEK 293-T cells, doxorubicin induction. It is filed as cell-based, human.
Series [9] has as its system NF-κB activation via PMA/ionomycin. As to the kind of experiment: NF-κB selectivity assay, HEK 293-T cells, PMA/ionomycin induction. The format is cell-based, human.
A short description of series [10]: Plasma stability, human plasma. It is filed as in vitro ADME. The following applies: Plasma/PBS, compound at 1 μM, 3 h.
A short description of series [11]: Plasma protein binding, human plasma. The format is in vitro ADME.
The target in series [12] is T1, CFLT3 (Fms-like tyrosine kinase) (Homo sapiens, UniProt P36888).
T1 sequence (P36888 27-993): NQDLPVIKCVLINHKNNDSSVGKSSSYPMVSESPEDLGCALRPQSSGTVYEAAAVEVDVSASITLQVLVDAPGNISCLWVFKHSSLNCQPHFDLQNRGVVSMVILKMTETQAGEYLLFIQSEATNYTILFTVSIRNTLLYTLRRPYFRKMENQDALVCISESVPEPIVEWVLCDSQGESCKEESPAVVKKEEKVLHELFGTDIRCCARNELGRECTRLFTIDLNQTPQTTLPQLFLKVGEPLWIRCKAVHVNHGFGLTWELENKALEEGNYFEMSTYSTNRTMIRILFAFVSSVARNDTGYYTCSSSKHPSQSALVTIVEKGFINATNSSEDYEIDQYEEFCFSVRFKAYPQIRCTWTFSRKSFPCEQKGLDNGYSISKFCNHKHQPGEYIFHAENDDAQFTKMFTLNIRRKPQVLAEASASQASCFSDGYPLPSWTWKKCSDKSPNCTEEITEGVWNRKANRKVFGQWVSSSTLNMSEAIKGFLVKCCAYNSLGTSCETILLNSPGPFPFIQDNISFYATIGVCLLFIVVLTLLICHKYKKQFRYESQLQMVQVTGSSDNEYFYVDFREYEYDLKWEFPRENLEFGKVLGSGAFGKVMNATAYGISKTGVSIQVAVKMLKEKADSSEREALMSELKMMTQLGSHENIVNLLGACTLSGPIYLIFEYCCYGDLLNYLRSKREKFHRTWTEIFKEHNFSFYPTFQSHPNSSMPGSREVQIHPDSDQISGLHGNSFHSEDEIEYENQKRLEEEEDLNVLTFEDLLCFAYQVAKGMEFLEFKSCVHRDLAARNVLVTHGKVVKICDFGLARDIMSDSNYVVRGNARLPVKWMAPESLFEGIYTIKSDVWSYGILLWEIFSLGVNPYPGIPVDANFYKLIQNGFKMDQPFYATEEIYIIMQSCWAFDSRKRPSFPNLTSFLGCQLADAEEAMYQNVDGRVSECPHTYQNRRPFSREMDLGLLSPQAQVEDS
Kind of series: Ambit KinomeScreen, FLT3. The conditions noted are these: 10 μM.

[13] abbreviates: read-out: TNF-α (NOD1-dependent) IC50.

The term IC50 denotes the concentration that inhibits the measured activity by half. As a reminder, the solubility is the concentration that dissolves in the medium under given conditions. Low values mean little dissolved substance, high ones much dissolved substance.

≈ marks a conversion by molar mass, not a printed value. Where two headings read alike, the source gives them in different places.

Regarding `COc1ccc(C(=O)Cn2c(N)nc3ccccc32)cc1` [14c], in the series on TNF-α (setting [13]), the IC50 was over 20 µM. In the case of `Cc1ccc(S(=O)(=O)n2c(N)nc3ccccc32)cc1` [1c], the “activity against 443 kinases” value in the series on 443 kinases is reported as “little activity”. The “Inhibitory activity (reported as % control), RIOK2” value in [1] is recorded as 6 % C. In addition, the values for the microsome stability in series [2] and in [7] were 0.8 % remaining and 41.8 % remaining, respectively. For the same compound, the plasma stability in series [3] and in [10] was 100/100 % remaining in each case. Further, the “cytotoxicity in NCI 60 screen” value in series [4] is given as “noncytotoxic”. Further, the plasma protein binding amounted to 95.0 % bound in series [5] (1 μM), 95.5 % bound in [5] (10 μM), 97.5 % bound in series [11] (1 μM) and 97.7 % bound in [11] (10 μM). This compound came in with a solubility at 18 h in series [6] of 2 µg/mL (≈ 6.96 µM). Also, in series [8], the “inhibition of NF-κB activation via doxorubicin-induced pathway” value was “did not inhibit”. Moreover, the “inhibition of NF-κB activation via PMA/ionomycin” value in [9] was “did not inhibit”. In series [12], the “Inhibitory activity (reported as % control), CFLT3” value amounted to 27 % C. In the series on TNF-α (setting [13]), the IC50 is over 20 µM.

`Nc1nc2ccccc2n1Cc1ccc(Cl)cc1` [10c]: the 50% inhibitory concentration (IC50) with TNF-α (setting [13]) is over 20 µM. Consider `CC(=O)c1ccc(N2CCN(S(=O)(=O)c3ccc4c(c3)CCN4C(=O)C3CC3)CC2)cc1` [20a], for which the IC50 in the series with TNF-α (read-out: TNF-α IC50) was over 20 µM. For `CCC(=O)N1CCc2cc(S(=O)(=O)N3CCN(c4ccc([N+](=O)[O-])cc4)CC3)ccc21` [23a], in the series on TNF-α (read-out: TNF-α IC50), the IC50 is over 20 µM. As to `Nc1nc2ccccc2n1C(=O)Cc1ccccc1` [15c], the concentration for half-maximal inhibition (IC50) in the series on TNF-α (setting [13]) is over 20 µM. Take `CC(=O)c1ccc(N2CCN(S(=O)(=O)c3ccc4c(c3)CCN4C(C)=O)CC2)cc1` [25a]: the concentration for half-maximal inhibition (IC50) with TNF-α (read-out: TNF-α IC50) is over 20 µM. Still for that read-out and setting: to `O=C(C1CC1)N1CCc2cc(S(=O)(=O)N3CCN(c4ccc([N+](=O)[O-])cc4)CC3)ccc21` [21a] belongs over 20 µM. On to `Cc1ccc(S(=O)(=O)n2c(N)nc3cc(C)c(C)cc32)cc1` [9c], for which, in the series on TNF-α (setting [13]), the IC50 was over 20 µM. For `CC(=O)N1CCc2cc(S(=O)(=O)N3CCN(c4ccc([N+](=O)[O-])cc4)CC3)ccc21` [26a], the IC50 in the series on TNF-α (read-out: TNF-α IC50) was over 20 µM. Regarding `CC(=O)c1ccc(N2CCN(S(=O)(=O)c3ccc4c(c3)CC(C)N4C(=O)C3CC3)CC2)cc1` (stereo not shown) [7a], in the series on TNF-α (read-out: TNF-α IC50), the IC50 was over 20 µM. With `N#Cc1ccc(N2CCN(S(=O)(=O)c3ccc4c(c3)CCN4C(=O)C3CC3)CC2)cc1` [19a], the IC50 in the series with TNF-α (read-out: TNF-α IC50) was over 20 µM. On to `Nc1nc2ccccc2n1CCC(=O)c1ccc(Cl)cc1` [13c], for which the half-maximal inhibitory concentration (IC50) in the series with TNF-α (setting [13]) was over 20 µM. On to `O=C(C1CC1)N1CCc2cc(S(=O)(=O)N3CCN(c4ccc(Cl)cc4)CC3)ccc21` [18a], for which the IC50 with TNF-α (read-out: TNF-α IC50) is over 20 µM. On to `Cc1ccc(S(=O)(=O)n2c(S)nc3ccc(C)cc32)cc1` [8c], for which, in the series with TNF-α (setting [13]), the half-inhibitory concentration (IC50) was over 20 µM. As for `CC(=O)N1CCc2cc(S(=O)(=O)N3CCN(c4ccc(Cl)cc4)CC3)ccc21` [27a], the IC50 in the series on TNF-α (read-out: TNF-α IC50) was over 20 µM.

`CCC(=O)N1CCc2cc(S(=O)(=O)N3CCN(c4ccc(C(C)=O)cc4)CC3)ccc21` [22a]: in the series with TNF-α (read-out: TNF-α IC50), the IC50 was over 20 µM. Consider `Nc1nc2ccccc2n1S(=O)(=O)c1ccccc1` [4c], for which the IC50 in the series on TNF-α (setting [13]) is over 20 µM. On the same count and under the same terms, to `Cc1ccc(S(=O)(=O)n2cnc3ccccc32)cc1` [6c] belongs over 20 µM.
